From US20260014285A1, “POLYPEPTIDE COMPOUND, AND COMPLEX AND USE THEREOF” (HANGZHOU HEALTHYTIDE BIOTECHNOLOGY CO., LTD., priority 2022, published 2026)
Non-standard residues stand in square brackets, D forms with d. Residues, ends and D or L forms follow the SMILES beside them. ξ: configuration not given here. *: point of attachment. DOTA = O=C(O)CN1CCN(CC(=O)O)CCN(CC(=O)*)CCN(CC(=O)O)CC1; NOTA = O=C(O)CN1CCN(CC(=O)O)CCN(CC(=O)*)CC1; PEG4 = NCCOCCOCCOCCOCCC(=O)O; ξIle = CC[C@H](C)C(N)C(=O)O; Aib = CC(C)(N)C(=O)O; AEA = NCCOCC(=O)O

How the values were obtained:
[1] = molecular target: integrin α5β1 (Homo sapiens, UniProt P05556+P08648); assay: Target affinity test by surface plasmon resonance (SPR), integrin α5β1; type: binding; settings: for Kd: SPR (Biacore T200), CM5 chip, 25° C., KD=Kd/Ka
Sequence of integrin α5β1 (P08648 42-995 limits assumed): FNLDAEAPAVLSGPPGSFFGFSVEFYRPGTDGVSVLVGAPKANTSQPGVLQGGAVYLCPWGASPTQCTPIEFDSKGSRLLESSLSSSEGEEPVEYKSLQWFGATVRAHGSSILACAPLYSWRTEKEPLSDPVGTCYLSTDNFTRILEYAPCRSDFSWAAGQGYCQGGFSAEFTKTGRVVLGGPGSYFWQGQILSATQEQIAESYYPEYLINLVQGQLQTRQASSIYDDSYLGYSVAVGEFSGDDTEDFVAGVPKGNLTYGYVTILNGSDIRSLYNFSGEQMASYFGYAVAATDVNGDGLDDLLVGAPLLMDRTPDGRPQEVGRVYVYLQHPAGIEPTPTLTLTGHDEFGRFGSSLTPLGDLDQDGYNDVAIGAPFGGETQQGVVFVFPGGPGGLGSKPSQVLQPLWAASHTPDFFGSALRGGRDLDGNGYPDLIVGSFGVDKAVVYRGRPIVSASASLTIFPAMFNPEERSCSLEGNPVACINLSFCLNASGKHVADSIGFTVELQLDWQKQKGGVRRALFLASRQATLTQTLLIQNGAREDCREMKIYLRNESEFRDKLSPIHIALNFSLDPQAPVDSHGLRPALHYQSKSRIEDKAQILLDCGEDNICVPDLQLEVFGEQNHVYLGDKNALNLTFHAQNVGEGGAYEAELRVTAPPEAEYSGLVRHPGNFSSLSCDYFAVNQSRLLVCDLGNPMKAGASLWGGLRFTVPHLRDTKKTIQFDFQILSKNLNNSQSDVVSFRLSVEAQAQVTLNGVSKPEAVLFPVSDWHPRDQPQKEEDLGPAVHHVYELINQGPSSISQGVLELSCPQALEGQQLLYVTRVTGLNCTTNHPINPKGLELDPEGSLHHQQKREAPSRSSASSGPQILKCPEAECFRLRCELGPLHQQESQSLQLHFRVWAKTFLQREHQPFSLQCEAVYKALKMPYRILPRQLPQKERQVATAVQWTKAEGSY
Sequence of integrin α5β1 (P05556 21-728 limits assumed): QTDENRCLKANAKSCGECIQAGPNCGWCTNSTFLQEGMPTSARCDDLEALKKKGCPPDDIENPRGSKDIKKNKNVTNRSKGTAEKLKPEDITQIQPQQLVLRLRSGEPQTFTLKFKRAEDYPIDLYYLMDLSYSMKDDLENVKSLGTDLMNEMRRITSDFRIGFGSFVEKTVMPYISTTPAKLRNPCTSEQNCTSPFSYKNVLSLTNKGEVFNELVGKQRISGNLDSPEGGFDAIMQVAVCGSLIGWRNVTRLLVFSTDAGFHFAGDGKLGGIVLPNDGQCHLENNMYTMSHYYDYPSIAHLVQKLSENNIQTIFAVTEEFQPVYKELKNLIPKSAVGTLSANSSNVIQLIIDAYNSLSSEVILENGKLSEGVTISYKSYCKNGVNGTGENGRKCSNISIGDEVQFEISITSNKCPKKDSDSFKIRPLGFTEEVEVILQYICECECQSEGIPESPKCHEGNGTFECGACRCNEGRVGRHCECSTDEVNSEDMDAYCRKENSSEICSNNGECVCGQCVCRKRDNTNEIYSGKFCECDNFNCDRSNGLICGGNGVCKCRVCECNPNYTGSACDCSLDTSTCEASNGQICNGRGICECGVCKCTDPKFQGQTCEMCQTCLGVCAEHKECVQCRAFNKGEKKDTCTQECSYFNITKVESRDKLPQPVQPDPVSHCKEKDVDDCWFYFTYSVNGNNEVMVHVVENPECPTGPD
Procedure: Surface plasmon resonance (SPR) technique was used to test the affinity of the compound in the examples to the target protein integrin α5β1. Specifically, the following operations were performed.
The affinity constants (KD) of the compounds to the target proteins integrin α5β1, αvβ3, and αvβ5 were calculated according to the formula of KD=Kd/Ka (the lower the value of KD, the higher the affinity of the compounds of the examples to the target protein integrin α5β1).

[2] = in vivo; set-up: species or system mice; settings: M-NSG, mouse, iv, 100 uCi, total radioactivity
Procedure: (§1) For example, labeling TM4 with radioactive ^68Ga: An aqueous solution of TM4 (DOTA-Asn-Asp-Val-Ile-Asn-OH) (20 μg) was added to the prepared ^68GaCl3 solution, and the pH was adjusted to 3-5 with aqueous sodium acetate and acetic acid. This system was reacted at 70-95° C. for 15 min, and then purified after the reaction was completed to obtain a labeled solution of ^68Ga-DOTA-Asn-Asp-Val-Ile-Asn-OH (^68Ga-TM4).
(§2) All compounds were labeled with ^68Ga in the same way as described above.
Approximately 100 μCi of ^68Ga injection was injected into the tail vein of M-NSG mice inoculated with H1975. […] Table 6 was obtained by image post-processing.

[3] = in vivo; set-up: species or system mice; settings: naked (nude), mouse, iv, 100 uCi, total radioactivity
Procedure: as §1, §2
Approximately 100 μCi of ^68Ga injection was injected into the tail vein of naked mice inoculated with MC38.

[4] = in vivo; set-up: species or system mice; settings: naked (nude), mouse, iv, 100 uCi, total radioactivity; remark: listed apart in the source
Procedure: as §1, §2
Approximately 100 μCi of ^68Ga injection was injected into the tail vein of naked mice inoculated with SKOV3.

Row | Compound | Kd [1] [nM] | tissue uptake at 1 h ([2]; % ID/g Bone) [%ID/g] | tissue uptake at 1 h ([2]; % ID/g Brain) [%ID/g] | tissue uptake at 1 h ([2]; % ID/g Heart) [%ID/g] | tissue uptake at 1 h ([2]; % ID/g Intestine) [%ID/g] | tissue uptake at 1 h ([2]; % ID/g Kidney) [%ID/g] | tissue uptake at 1 h ([2]; % ID/g Liver) [%ID/g] | tissue uptake at 1 h ([2]; % ID/g Lung) [%ID/g] | tissue uptake at 1 h ([2]; % ID/g Muscle) [%ID/g] | tissue uptake at 1 h ([2]; % ID/g Tumor) [%ID/g] | tissue uptake at 1 h ([3]; % ID/g Bladder) [%ID/g] | tissue uptake at 1 h ([3]; % ID/g Bone) [%ID/g] | tissue uptake at 1 h ([3]; % ID/g Brain) [%ID/g] | tissue uptake at 1 h ([3]; % ID/g Heart) [%ID/g] | tissue uptake at 1 h ([3]; % ID/g Intestine) [%ID/g] | tissue uptake at 1 h ([3]; % ID/g Kidney) [%ID/g] | tissue uptake at 1 h ([3]; % ID/g Liver) [%ID/g] | tissue uptake at 1 h ([3]; % ID/g Lung) [%ID/g] | tissue uptake at 1 h ([3]; % ID/g Muscle) [%ID/g] | tissue uptake at 1 h ([3]; % ID/g Tumor) [%ID/g] | other results
1 | CC[C@H](C)C(NC(=O)[C@@H](NC(=O)[C@H](CC(=O)O)NC(=O)[C@H](CC(=O)O)NC(=O)CNC(=O)[C@H](CCCNC(=N)N)NC(=O)CN1CCN(CC(=O)O)CCN(CC(=O)O)CC1)C(C)C)C(=O)N[C@@H](CC(N)=O)C(=O)N[C@@H](Cc1ccccc1)C(=O)O (some centres unmarked) [TM3] ({NOTA}-RGDDV[ξIle]NF-OH) | 1.92 |  |  |  |  |  |  |  |  |  |  |  |  |  |  |  |  |  |  |  | affinity constant (KD) to integrin α5β1, in words ([1]; SPR): better than nM level
2 | CC[C@H](C)[C@H](NC(=O)C(C)(C)NC(=O)[C@H](CC(=O)O)NC(=O)[C@H](CC(N)=O)NC(=O)CN1CCN(CC(=O)O)CCN(CC(=O)O)CCN(CC(=O)O)CC1)C(=O)N[C@@H](CC(N)=O)C(=O)O [^68Ga-TM11, metal not drawn] ({DOTA}-ND[Aib]IN-OH) |  | 0.27 | 0.21 | 0.53 | 0.5 | 4 | 0.43 | 0.31 | 0.31 | 0.94 | 18.9 | 0.08 | 0.18 | 0.25 | 0.59 | 1.2 | 0.29 | 0.15 | 0.08 | 0.73 | tissue uptake at 1 h ([4]; % ID/g Bladder): 4.7 %ID/g; tissue uptake at 1 h ([4]; % ID/g Bone): 0.04 %ID/g; tissue uptake at 1 h ([4]; % ID/g Brain): 0.09 %ID/g; tissue uptake at 1 h ([4]; % ID/g Heart): 0.11 %ID/g; tissue uptake at 1 h ([4]; % ID/g Intestine): 0.33 %ID/g; tissue uptake at 1 h ([4]; % ID/g Kidney): 0.52 %ID/g; tissue uptake at 1 h ([4]; % ID/g Liver): 0.15 %ID/g; tissue uptake at 1 h ([4]; % ID/g Lung): 0.08 %ID/g; tissue uptake at 1 h ([4]; % ID/g Muscle): 0.05 %ID/g; tissue uptake at 1 h ([4]; % ID/g Tumor): 0.42 %ID/g
3 | CC[C@H](C)[C@H](NC(=O)[C@@H](NC(=O)[C@H](CC(=O)O)NC(=O)[C@H](CC(N)=O)NC(=O)[C@H](CC(=O)O)NC(=O)CNC(=O)[C@H](CCCNC(=N)N)NC(=O)CCOCCOCCOCCOCCNC(=O)CN1CCN(CC(=O)O)CCN(CC(=O)O)CCN(CC(=O)O)CC1)C(C)C)C(=O)N[C@@H](CC(N)=O)C(=O)O [^68Ga-TM7, metal not drawn] ({DOTA-PEG4}-RGDNDVIN-OH) |  | 0.24 | 0.24 | 0.5 | 0.45 | 64.5 | 0.53 | 0.3 | 0.28 | 0.75 |  |  |  |  |  |  |  |  |  |  | 
4 | CC[C@H](C)[C@H](NC(=O)[C@@H](NC(=O)[C@H](CC(=O)O)NC(=O)[C@H](CC(N)=O)NC(=O)[C@H](CC(=O)O)NC(=O)CNC(=O)[C@H](CCCNC(=N)N)NC(=O)CN1CCN(CC(=O)O)CCN(CC(=O)O)CCN(CC(=O)O)CC1)C(C)C)C(=O)N[C@@H](CC(N)=O)C(=O)O [TM6] ({DOTA}-RGDNDVIN-OH) | 239 |  |  |  |  |  |  |  |  |  |  |  |  |  |  |  |  |  |  |  | 
5 | CC[C@H](C)[C@H](NC(=O)[C@@H](NC(=O)[C@H](CC(=O)O)NC(=O)[C@H](CC(N)=O)NC(=O)COCCNC(=O)CN1CCN(CC(=O)O)CCN(CC(=O)O)CCN(CC(=O)O)CC1)C(C)C)C(=O)N[C@@H](CC(N)=O)C(=O)O [^68Ga-TM13, metal not drawn] ({DOTA-AEA}-NDVIN-OH) |  | 0.13 | 0.2 | 0.49 | 0.6 | 3.9 | 0.5 | 0.32 | 0.23 | 0.97 | 7.3 | 0.05 | 0.09 | 0.11 | 0.2 | 1.6 | 0.16 | 0.08 | 0.05 | 0.2 | tissue uptake at 1 h ([4]; % ID/g Bladder): 15.6 %ID/g; tissue uptake at 1 h ([4]; % ID/g Bone): 0.08 %ID/g; tissue uptake at 1 h ([4]; % ID/g Brain): 0.09 %ID/g; tissue uptake at 1 h ([4]; % ID/g Heart): 0.17 %ID/g; tissue uptake at 1 h ([4]; % ID/g Intestine): 0.85 %ID/g; tissue uptake at 1 h ([4]; % ID/g Kidney): 1.4 %ID/g; tissue uptake at 1 h ([4]; % ID/g Liver): 0.3 %ID/g; tissue uptake at 1 h ([4]; % ID/g Lung): 0.12 %ID/g; tissue uptake at 1 h ([4]; % ID/g Muscle): 0.08 %ID/g; tissue uptake at 1 h ([4]; % ID/g Tumor): 0.49 %ID/g
6 | CC[C@H](C)[C@H](NC(=O)[C@@H](NC(=O)[C@H](CC(=O)O)NC(=O)[C@H](CC(N)=O)NC(=O)[C@H](CC(=O)O)NC(=O)CNC(=O)[C@H](CCCNC(=N)N)NC(=O)CCOCCOCCOCCOCCNC(=O)CN1CCN(CC(=O)O)CCN(CC(=O)O)CCN(CC(=O)O)CC1)C(C)C)C(=O)N[C@@H](CC(N)=O)C(=O)O [TM7] ({DOTA-PEG4}-RGDNDVIN-OH) | 43.9 |  |  |  |  |  |  |  |  |  |  |  |  |  |  |  |  |  |  |  | 
